This note sets out measurements from ChEMBL document CHEMBL4706524, “Discovery of sulfonyl hydrazone derivative as a new selective PDE4A and PDE4D inhibitor by lead-optimization approach on the prototype LASSBio-448: In vitro and in vivo preclinical studies” (Eur J Med Chem, 2020).

The target in series [1] is 3',5'-cyclic-AMP phosphodiesterase 4B (Homo sapiens, UniProt Q07343). As to the kind of experiment: Inhibition of human recombinant PDE4B1 using FAM-cAMP as substrate at 10 uM measured after 1 hr by IMAP TR-FRET assay. A general note: TR-FRET usually uses a lanthanide donor and a delayed reading to cut background.
Series [2] is described as follows: Chemical stability of the compound in KCl/HCl buffer at pH 2.0 measured upto 120 mins by HPLC-DAD analysis. As to conditions: pH 2, 2 h.
Series [3] is filed under the species Homo sapiens. Nature of the series: Inhibition of human recombinant PDE4A1A using FAM-cAMP as substrate at 10 uM measured after 1 hr by IMAP TR-FRET assay.
In series [4] the target is T1, 3',5'-cyclic-AMP phosphodiesterase 4D (Homo sapiens, UniProt Q08499). As to the kind of experiment: Inhibition of human recombinant PDE4D3 using FAM-cAMP as substrate at 10 uM measured after 1 hr by IMAP TR-FRET assay.
For series [5], the target named is 3',5'-cyclic-AMP phosphodiesterase 4C (Homo sapiens, UniProt Q08493). Nature of the series: Inhibition of human recombinant PDE4C using FAM-cAMP as substrate at 10 uM measured after 1 hr by IMAP TR-FRET assay.
The nature of series [6]: Chemical stability of the compound in phosphate buffer at pH 7.4 measured upto 120 mins by HPLC-DAD analysis. Format: physicochemical. The note with it: pH 7.4, 2 h.
For series [7] the following is noted: pampa, 8 h.
The next series is described as follows: in vitro. As to conditions: PAMPA.
Series [8] has as its target T1, 3',5'-cyclic-AMP phosphodiesterase 4D. As to the kind of experiment: Inhibition of human recombinant PDE4D3 using FAM-cAMP as substrate measured after 1 hr by IMAP TR-FRET assay relative to control.
Series [9] has as its system Mus musculus. Nature of the series: Antiinflammatory activity against A/J mouse assessed as decrease in LPS-induced airway hyperreactivity at 25 umol/kg, po treated via gavage for 1 hr before LPS stimulation measured after 24 hrs by whole body plethysmography relative to control. The note with it: 25 h. Format: functional.
In series [10] the test system is Mus musculus. As to the kind of experiment: Antiinflammatory activity against A/J mouse assessed as decrease in LPS-induced TNFalpha production in lungs at 25 umol/kg, po treated via gavage for 1 hr before LPS stimulation and measured after 24 hrs by ELISA relative to control. Type of series: functional. As to conditions: 25 h. (In general: An ELISA detects its analyte on a solid surface through an enzyme-linked reagent.)

For series [11], the system named is Mus musculus. As to the kind of experiment: Antiinflammatory activity against A/J mouse assessed as decrease in LPS-induced TNFalpha production in lungs at 6.25 umol/kg, po treated via gavage for 1 hr before LPS stimulation and measured after 24 hrs by ELISA relative to control. Type of series: functional. The note with it: 25 h.
Series [12] can be described thus: Inhibition of human recombinant PDE4A1A using FAM-cAMP as substrate measured after 1 hr by IMAP TR-FRET assay.
Series [13] deals with T1, 3',5'-cyclic-AMP phosphodiesterase 4D. As to the kind of experiment: Inhibition of human recombinant PDE4D3 using FAM-cAMP as substrate measured after 1 hr by IMAP TR-FRET assay.
The subject of series [14] is Mus musculus. Nature of the series: Antiinflammatory activity against A/J mouse assessed as decrease in LPS-induced airway hyperreactivity at 6.25 umol/kg, po treated via gavage for 1 hr before LPS stimulation measured after 24 hrs by whole body plethysmography relative to control. The note with it: 25 h. Type of series: functional.
The species named for series [15] is Homo sapiens. As to the kind of experiment: Inhibition of human recombinant PDE4A1A using FAM-cAMP as substrate measured after 1 hr by IMAP TR-FRET assay relative to control.
For series [16], the system named is Trachea. As to the kind of experiment: […] activity in non-sensitized guinea pig-derived trachea assessed as decrease in CCh-induced tracheal tonic contraction in presence of functional epithelium. As to conditions: Cavia porcellus. Type of series: tissue-based.
Series [17] has as its system Trachea. Nature of the series: […] activity in OVA-sensitized guinea pig-derived trachea assessed as decrease in CCh-induced tracheal tonic contraction in absence of functional epithelium treated with compound after contraction stabilised. The note with it: Cavia porcellus. Type of series: tissue-based.
Series [18] has as its system Trachea. Nature of the series: […] activity in OVA-sensitized guinea pig-derived trachea assessed as decrease in CCh-induced tracheal tonic contraction in presence of functional epithelium treated with compound after contraction stabilised. Type of series: tissue-based. The note with it: Cavia porcellus.
Series [19] concerns Trachea. As to the kind of experiment: […] activity in non-sensitized guinea pig-derived trachea assessed as decrease in CCh-induced tracheal tonic contraction in absence of functional epithelium treated with compound after contraction stabilised. As to conditions: Cavia porcellus. Type of series: tissue-based.

Structures are written as SMILES. Some results are limits rather than exact numbers.

Sequence of 3',5'-cyclic-AMP phosphodiesterase 4C (Q08493 whole entry): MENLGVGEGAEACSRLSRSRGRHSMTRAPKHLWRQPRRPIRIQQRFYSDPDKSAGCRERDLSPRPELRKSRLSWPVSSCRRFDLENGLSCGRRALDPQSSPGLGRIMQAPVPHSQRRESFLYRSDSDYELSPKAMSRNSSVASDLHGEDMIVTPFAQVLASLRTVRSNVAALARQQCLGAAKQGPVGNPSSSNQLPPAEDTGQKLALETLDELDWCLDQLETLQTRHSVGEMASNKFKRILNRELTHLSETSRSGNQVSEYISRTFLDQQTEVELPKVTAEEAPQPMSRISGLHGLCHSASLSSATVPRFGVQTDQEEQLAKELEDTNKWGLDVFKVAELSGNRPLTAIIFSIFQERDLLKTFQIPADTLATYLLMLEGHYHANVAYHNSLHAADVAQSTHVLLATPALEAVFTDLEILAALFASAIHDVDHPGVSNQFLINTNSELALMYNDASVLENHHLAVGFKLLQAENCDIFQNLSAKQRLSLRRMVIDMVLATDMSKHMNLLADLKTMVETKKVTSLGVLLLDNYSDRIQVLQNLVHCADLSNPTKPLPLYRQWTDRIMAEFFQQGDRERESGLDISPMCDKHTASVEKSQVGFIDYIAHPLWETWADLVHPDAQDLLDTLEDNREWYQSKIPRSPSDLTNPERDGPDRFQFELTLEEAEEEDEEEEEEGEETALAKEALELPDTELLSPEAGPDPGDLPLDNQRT
Sequence of 3',5'-cyclic-AMP phosphodiesterase 4B (Q07343 whole entry): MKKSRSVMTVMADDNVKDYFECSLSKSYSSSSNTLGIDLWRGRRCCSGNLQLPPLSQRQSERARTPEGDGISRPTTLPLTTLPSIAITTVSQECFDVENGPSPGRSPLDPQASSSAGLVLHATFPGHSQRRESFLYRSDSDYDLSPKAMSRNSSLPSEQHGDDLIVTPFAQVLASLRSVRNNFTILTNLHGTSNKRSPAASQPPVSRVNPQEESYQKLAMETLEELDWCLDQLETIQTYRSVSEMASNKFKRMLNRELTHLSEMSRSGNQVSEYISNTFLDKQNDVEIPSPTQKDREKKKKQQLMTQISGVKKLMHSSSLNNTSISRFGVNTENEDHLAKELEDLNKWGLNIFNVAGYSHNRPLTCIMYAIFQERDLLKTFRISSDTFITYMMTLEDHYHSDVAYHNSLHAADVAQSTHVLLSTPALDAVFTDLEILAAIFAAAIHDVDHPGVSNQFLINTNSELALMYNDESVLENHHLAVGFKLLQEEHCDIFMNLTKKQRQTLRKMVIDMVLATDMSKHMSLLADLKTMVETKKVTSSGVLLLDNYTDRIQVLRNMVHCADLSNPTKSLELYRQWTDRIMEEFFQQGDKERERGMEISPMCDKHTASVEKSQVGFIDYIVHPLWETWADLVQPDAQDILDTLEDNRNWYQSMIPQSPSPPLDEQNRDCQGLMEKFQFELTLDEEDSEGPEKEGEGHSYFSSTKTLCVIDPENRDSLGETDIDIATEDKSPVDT
T1 sequence (Q08499 whole entry): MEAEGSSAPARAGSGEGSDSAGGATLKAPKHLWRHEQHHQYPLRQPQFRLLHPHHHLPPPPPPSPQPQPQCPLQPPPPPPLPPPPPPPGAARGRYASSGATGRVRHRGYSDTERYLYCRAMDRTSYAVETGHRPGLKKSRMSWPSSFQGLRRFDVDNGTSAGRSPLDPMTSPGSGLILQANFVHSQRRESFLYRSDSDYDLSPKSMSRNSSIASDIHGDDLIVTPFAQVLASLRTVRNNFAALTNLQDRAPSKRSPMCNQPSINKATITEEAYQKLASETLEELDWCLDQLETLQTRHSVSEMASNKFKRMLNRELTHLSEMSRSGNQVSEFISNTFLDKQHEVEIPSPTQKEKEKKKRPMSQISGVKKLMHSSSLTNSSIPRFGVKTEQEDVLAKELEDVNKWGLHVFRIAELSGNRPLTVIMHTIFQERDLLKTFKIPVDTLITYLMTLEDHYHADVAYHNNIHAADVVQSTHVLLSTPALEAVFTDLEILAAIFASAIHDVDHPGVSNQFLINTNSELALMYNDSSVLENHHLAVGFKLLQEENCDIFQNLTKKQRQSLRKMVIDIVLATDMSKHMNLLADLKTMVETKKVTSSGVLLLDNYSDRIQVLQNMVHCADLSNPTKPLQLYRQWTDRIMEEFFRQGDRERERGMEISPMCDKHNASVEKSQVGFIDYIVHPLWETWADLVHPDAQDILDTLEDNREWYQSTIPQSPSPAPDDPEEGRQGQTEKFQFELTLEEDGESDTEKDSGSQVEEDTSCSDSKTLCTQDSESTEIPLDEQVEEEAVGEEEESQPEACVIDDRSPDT

Turning to `COc1ccc(CCN(C)S(=O)(=O)c2ccc([N+](=O)[O-])cc2)cc1OC`, the inhibition in series [1] is less than 5%; in the series filed under Homo sapiens [3], less than 5%; in [4] it was less than 5%; in series [5], 19%. Moreover, the Stabilty entry in series [2] and in [6] was “Stable” throughout.

Regarding `COc1ccc(CCNS(=O)(=O)c2ccc([N+](=O)[O-])cc2)cc1OC`, the inhibition is 13.8% in series [1], less than 5% in the series filed under Homo sapiens [3], less than 5% in series [4] and less than 5% in [5]. Further, the Stabilty result in series [2] and in series [6] was “Stable” each time.

On to `O=C(O)Cc1ccccc1Nc1c(Cl)cccc1Cl` [DICLOFENAC], for which the Drug absorption in [7] was found to be 99.28%.

Consider `COc1ccc(/C=N/NS(=O)(=O)c2cc3c(cc2C)OCO3)cc1OC`, for which the inhibition in [1] was less than 5%; in the series listed under Homo sapiens [3] it was less than 5%; in series [4], 8.8%; in series [5] it was less than 5%. The Stabilty entry in series [2] is “Unstable”; in [6], “Stable”.

In turn, `Nc1nc2c(ncn2COCCO)c(=O)[nH]1` [ACYCLOVIR] displayed an apparent permeability (Papp) at 8 h in “in vitro” of 0.08 ×10⁻⁶ cm/s.

As for `COc1ccc(/C=N/NS(=O)(=O)c2ccccc2C)cc1OC`, the inhibition in [1] was less than 5%; in the series filed under Homo sapiens [3], 8%; in series [4], 15.9%; in [5] it was 19.5%. Besides, the Stabilty result is recorded as “Unstable” in [2] and “Stable” in series [6].

For `COc1ccc(S(=O)(=O)N(C)/N=C/c2ccc(OC)c(OC)c2)cc1`, the inhibition is less than 5% in series [1], 31.5% in the series filed under Homo sapiens [3], 12.8% in series [4] and 43% in series [5]. Further, the Stabilty result was “Unstable” in series [2] and “Stable” in series [6].

Regarding `COc1ccc(CCN(C)S(=O)(=O)c2ccc3ccccc3c2)cc1OC`, the Emax worked out at 63% in series [8] and 97% in the series listed under Homo sapiens [15]. In addition, the inhibition in vivo at 25 µmol/kg is 97% with Mus musculus [9] and 58.9% with Mus musculus [10]. The inhibition in series [1] worked out at 12.2%; in the series filed under Homo sapiens [3] it was 89.9%; in series [4] it was 50.1%; in series [5] it was 30.1%. Also, the Stabilty entry in [2] and in series [6] was “Stable” in each case. Moreover, the inhibition in vivo at 6.25 µmol/kg in the series on Mus musculus [11] worked out at 0%; in the series with Mus musculus [14], 95%. The figures for the IC50 in series [12] and in [13] were 3000 nM and 35300 nM, respectively.

On to `COc1ccc(CCNS(=O)(=O)c2ccc3ccccc3c2)cc1OC`, for which the inhibition is less than 5% in series [1], 30.4% in the series listed under Homo sapiens [3], 9.1% in series [4] and 12.1% in series [5]. Also, the Stabilty result in series [2] and in series [6] was “Stable” in each case.

With `COc1ccc(CCNS(=O)(=O)c2ccc(OC)c(OC)c2)cc1OC`, the inhibition in series [1] is less than 5%; in the series listed under Homo sapiens [3], 11.3%; in series [4], 13.6%; in series [5] it was 26%. Moreover, the Stabilty result in series [2] and in [6] was “Stable” throughout.

Turning to `COc1ccc(CCN(C)S(=O)(=O)c2ccc(-c3ccccc3)cc2)cc1OC`, the Emax in series [8] came out at 60%; in the series filed under Homo sapiens [15] it was 65%. The inhibition in vivo at 25 µmol/kg in the series on Mus musculus [9] amounted to 80%; in the series on Mus musculus [10], 55.1%. Further, the inhibition in [1] was 7.1%; in the series filed under Homo sapiens [3], 46.8%; in series [4], 56.3%; in series [5], 26.6%. Moreover, the Stabilty entry in series [2] and in series [6] was “Stable” in each case. Moreover, the inhibition in vivo at 6.25 µmol/kg in the series on Mus musculus [11] was 22.2%; in the series with Mus musculus [14], 95%. Further, in series [13], the IC50 was 20800 nM.

Consider `COc1ccc(CCNS(=O)(=O)c2ccccc2C)cc1OC`, for which the inhibition in [1] is less than 5%; in the series filed under Homo sapiens [3], 6.1%; in [4], less than 5%; in [5], less than 5%. Moreover, the Stabilty entry in series [2] and in series [6] was “Stable” in each case.

In the case of `COc1ccc(/C=N/NS(=O)(=O)c2ccc(C(F)(F)F)cc2)cc1OC`, the inhibition is less than 5% in series [1], less than 5% in the series listed under Homo sapiens [3], 19.7% in series [4] and 29% in series [5]. Besides, the Stabilty result in series [2] is listed as “Unstable”; in series [6], “Stable”.

As for `COc1ccc(S(=O)(=O)N/N=C/c2ccc(OC)c(OC)c2)cc1`, the inhibition was less than 5% in series [1], 35.2% in the series filed under Homo sapiens [3], 20.2% in series [4] and 40.2% in series [5]. Further, the Stabilty entry is given as “Unstable” in series [2] and “Stable” in series [6].

The compound `CNC(=C[N+](=O)[O-])NCCSCc1ccc(CN(C)C)o1` [RANITIDINE] came in with a Drug absorption in [7] of 13.48%.

As for `COc1ccc(S(=O)(=O)N(C)CCc2ccc(OC)c(OC)c2)cc1`, the inhibition in [1] was 33%; in the series filed under Homo sapiens [3], 43%; in [4], 35.6%; in series [5] it was 23.5%. Also, the Stabilty entry in series [2] and in series [6] was “Stable” throughout.

In turn, `C[C@]12C=CC(=O)C=C1CC[C@@H]1[C@@H]2C(=O)C[C@@]2(C)[C@H]1CC[C@]2(O)C(=O)CO` [PREDNISONE] showed a Papp at 8 h in “in vitro” of 3.09 ×10⁻⁶ cm/s.

In the case of `COc1ccc(CCNS(=O)(=O)c2ccc(-c3ccccc3)cc2)cc1OC`, the inhibition in [1] was less than 5%; in the series listed under Homo sapiens [3], 14.8%; in series [4], 10.8%; in series [5] it was less than 5%. Moreover, the Stabilty entry in [2] and in series [6] was “Stable” each time.

Regarding `COc1ccc(/C=N/NS(=O)(=O)c2ccccc2)cc1OC`, the inhibition in series [1] is less than 5%; in the series listed under Homo sapiens [3] it was 11.9%; in [4], less than 5%; in series [5], 14.6%. Also, the Stabilty entry in series [2] is “Unstable”; in series [6], “Stable”.

As for `COc1ccc(C2CNC(=O)C2)cc1OC1CCCC1` (centres undefined) [ROLIPRAM], the EC50 in the series on Trachea [16] was 26.3 nM; in the series with Trachea [17], 69.2 nM; in the series on Trachea [18], 31.6 nM; in the series on Trachea [19], 64.6 nM.

In the case of `COc1ccc(/C=N/N(C)S(=O)(=O)c2ccccc2C)cc1OC`, the inhibition in [1] is less than 5%; in the series listed under Homo sapiens [3] it was 16.2%; in [4], 26.1%; in series [5], 39.3%. Also, the results for the Stabilty result in series [2] and in [6] were “Unstable” and “Stable”, respectively.

`COc1ccc(S(=O)(=O)NCCc2ccc(OC)c(OC)c2)cc1`: the inhibition is less than 5% in series [1], 11% in the series listed under Homo sapiens [3], 23.8% in series [4] and 20.7% in series [5]. Moreover, the Stabilty result in series [2] and in [6] was “Stable” throughout.

With `COc1ccc(CCN(C)S(=O)(=O)c2ccccc2C)cc1OC`, the inhibition in [1] is 26.5%; in the series filed under Homo sapiens [3], 25.9%; in series [4], 27.6%; in [5], less than 5%. In addition, the Stabilty result in [2] and in [6] was “Stable” in each case.

`O=c1ccc2ccccc2o1` [COUMARIN]: in “in vitro”, the apparent permeability coefficient (Papp) at 8 h was determined as 22.6 ×10⁻⁶ cm/s. In series [7], the Drug absorption came to 99.98%.

Regarding `COc1ccc(CCN(C)S(=O)(=O)c2ccc(OC)c(OC)c2)cc1OC`, the inhibition in series [1] worked out at 12%; in the series filed under Homo sapiens [3], 36.1%; in series [4], 31.1%; in series [5] it was 16.4%. Besides, the Stabilty entry in series [2] and in series [6] was “Stable” in each case.

The term inhibition denotes the change of the read-out against control, counted positive when it falls. As usually defined, the Papp is a coefficient for how fast a substance crosses the barrier. A higher Papp goes with ready permeation. As a reminder, the Emax is the size of the effect at its maximum, as opposed to the concentration needed. In general, inhibition in vivo refers to the change of the read-out against control, counted positive when it falls. Broadly, the IC50 is the concentration needed to halve the response being measured. Broadly, the EC50 is the concentration that produces a half-maximal response.
